Data set [1] relates to RHO cells (RBAp48-stable cell line from HSG cells). The data set can be described thus: Effect of siRNA on RBAp48-induced apoptosis, Annexin-V-FITC flow cytometry. The data set is classed as cell-based, human. As to conditions: 50 nM siRNA by lipofection, IPTG 24 h after transfer, culture 8 h. The source says:
(§1) A stable cell line in which RBAp48 expression is stably regulated by addition of IPTG to the culture system is established by means of LacSwitch II Inducible Mammalian Expression System (STRATEGENE) through use of HSG cells (RHO cell). […] Separately, the RHO cells were investigated in terms of cell cycle related molecules (i.e., RBs, phosphorylated RB, CyclinD3, and p19ARF) in the cell lysates six hours after addition of IPTG, through western blotting by use of the corresponding antibodies (BD Transduction Laboratory). […] In addition, a nuclear extract of IPTG-added RHO cells was subjected to gel shift assay.
siRNA of RBAp48 was prepared (sense; CGAGGAAUACAAAAUAUGGTT (SEQ ID NO: 1), antisense; CCAUAUUCUGUAUUCCUCGTT (SEQ ID NO: 2)). […] The percent apoptotic cells of the cultured cells was determined by means of a flow cytometer, by use of Annexin-V-FITC.
(A flow cytometer gives signals particle by particle.)

In a further data set the test system is RBAp48 mRNA in HSG cells. The data set can be described thus: Northern blotting of genes with enhanced expression by anti-estrogen effect. The data set is classed as cell-based, human.
Data set [2] concerns mouse salivary gland cell line MSG (B6). Briefly: Apoptosis induction of cultured cells, Annexin-V-FITC flow cytometry. The data set is classed as cell-based. As to conditions: Tam 10^−7 M, 48 hours after addition, compared with groups without Tam. The protocol: (§2) Cells of each of the following cell lines were cultured through a routine method; mouse salivary gland cell lines (MSG:B6 and ERαKO); human salivary gland cell line (HSG); human breast cancer cultured-cell line (MCF-7); human acute T cell leukemia cell line (Jurkat); and human colon cancer cultured-cell lines (HT-29 and Colo201). The cultured cells were reacted with tamoxifen (Tam, final concentration: 10^−7 M), an antagonist of estrogen. […] Separately, the above cultured cells were reacted with staurosporin (an apoptosis inducer, final concentration: 10^−6 M), and the resultant cells were used as a positive control group. Forty-eight hours after the addition of Tam, apoptosis of the cells was determined by means of a flow cytometer, by use of Annexin-V-FITC.

Data set [3] relates to human salivary gland cell line (HSG). The data set is described as above. It counts as cell-based. As to conditions: Tam 10^−7 M, 48 hours after addition, compared with groups without Tam. The protocol: as §2
Data set [4] deals with ERαKO-mouse-derived MSG cells. The data set is described as above. The data set is classed as cell-based. As to conditions: Tam 10^−7 M, 48 hours. The protocol:
as §2

For data set [5], the system named is human breast cancer cultured-cell line (MCF-7). As to conditions: MCF-7 cells, previously known; cited from earlier work.
Data set [6] relates to RHO cells (RBAp48-stable cell line from HSG cells). The data set can be described thus: Apoptosis of RBAp48-stable cell line after addition of IPTG. As to conditions: from two hours to twelve hours after addition of IPTG. It counts as cell-based, human.
Source text: as §1

Data set [7] deals with MSG:B6, ERαKO, HSG, MCF-7, Jurkat, HT-29 and Colo201 cells. Briefly: Apoptosis induction of cultured cells, positive control groups. The data set is classed as cell-based. As to conditions: staurosporin 10^−6 M, all cell groups, not differing from one group to another. The protocol:
as §2

We go through four compounds from US7741047B2, “Method for treating autoimmune diseases and screening method for preventive or therapeutic agent for the same” (Kowa Co., Ltd., priority 2003, dated 2010).

As for “RBAp48 siRNA: siRNA of RBAp48: sense CGAGGAAUACAAAAUAUGGTT (SEQ ID NO: 1), antisense CCAUAUUCUGUAUUCCUCGTT (SEQ ID NO: 2)”, in data set [1], the “apoptosis induced by addition of IPTG” value is listed as “significantly suppressed”.

In the case of `CC/C(=C(\c1ccccc1)c1ccc(OCCN(C)C)cc1)c1ccccc1` [tamoxifen], the “mRNA (RBAp48 gene) expression” value in the data set on RBAp48 mRNA in HSG cells (tamoxifen 10^−7 M, northern blotting) is listed as “enhanced expression”. The “RBAp48 mRNA expression” value in the data set with RBAp48 mRNA in HSG cells (two hours after Tam stimulation) is “strong RBAp48 mRNA expression”. Further, the percent apoptotic cells result in data set [2] and in data set [3] was “significantly high” each time. In addition, the figures for the apoptosis induction entry in data set [4] and in data set [5] were “not to be induced” and “known to be induced”, respectively.

`CC(C)S[C@@H]1O[C@H](CO)[C@H](O)[C@H](O)[C@H]1O` [IPTG, isopropyl-β-D-thiogalactoside]: the percent apoptotic cells result in data set [6] is given as “increase over time”.

`CN[C@@H]1C[C@H]2O[C@@](C)([C@@H]1OC)n1c3ccccc3c3c4c(c5c6ccccc6n2c5c31)C(=O)NC4` [staurosporin]: the percent apoptotic cells result in data set [7] is on record as “high”.
